Measurements from patent US8541607B2, “Disulfide, sulfide, sulfoxide, and sulfone derivatives of cyclic sugars and uses thereof” (Lacer, S.A., priority 2003, dated 2013).
Where a name gives a salt, the structure may show the parent alone. Read-outs that look alike come from different tables or passages of the source.

Assays:
[1] = system: Rats, left carotid artery thrombosis (FeCl3); experiment: In vivo synergistic antithrombotic effect, FeCl3 carotid artery thrombosis, single drugs and combinations; set-up: species or system rat; conditions: for Rate of animals with thrombotic occlusion: control 1
Description: The method used is substantially the same as described by Kurz (Kurz K. D., at al., Thromb. Res. 1990, 60: 269-280) and modified by Feuerstein (Feuerstein G. Z., et al., Artherioscler, Thromb. Vasc. Biol. 1999, 19: 2554-25562). […]
Forty-five minutes after dosing administration, rats were anaesthetized with sodium pentobarbital (40 mg/kg, i.p.) and they were placed later dorsally on a heated (37° C.) surgical board.
The left carotid artery was isolated and a Parafilm M sheet (7×20 mm, American National Can) was placed under it. An electromagnetic sounding of flow (Transonic Systems Inc.) was placed on the artery to measure blood flow.
(§1) Sixty minutes after product administration, a paper patch saturated with FeCl3 solution (70%) was placed (and not removed for the whole duration of the experiment) on the left carotid artery downstream from the sounding of flow to initiate thrombosis. The blood flow was controlled during the 60 min later to the application of the patch in the artery.
The vessel was considered totally occluded by the thrombus formed when no blood flow was detected (0.0 ml/min). In this model, occlusive thrombus formation usually takes place within 15 to 20 minutes in non-treated animals.
The fractional product concept was used to identify synergy between the compounds. In accordance with this concept, if we consider the full protection of the animal as:
[formula] where A is the rate of animals with thrombotic occlusion in treated group; and B is the rate of animals with thrombotic occlusion in the control group.
For two drugs that act of independent way:
[formula] where A1 is the rate of animals with thrombotic occlusion in the treatment group A1; A2 is the rate of animals with thrombotic occlusion in the treatment group A2; and B is the rate of animals with thrombotic occlusion in the control group
If the protection obtained with the combination of the drugs is higher than the fractional inhibition for two compounds acting independently then synergism is considered to occur.
The results are shown in table 14 and are expressed as rate of animals with thrombotic occlusion in each group.

[2] = system: platelets (Human Platelet Rich Plasma); experiment: In vitro inhibition of ADP-induced platelet aggregation; type: cell-based; conditions: submaximal ADP (1-4 μM), mean ± s.d.
Description: The method used in the assays is substantially the same as described in following reference: • * Sales, E., at al., Br. J. Pharmacol. 112 (1994); 1071-1076.
The compounds are tested at four different concentrations, using platelet rich plasma from not less than 6 different healthy human donors. The results obtained are compared to those from 5-isosorbide mononitrate, which is used as reference product.
The results are shown in table 2 and are expressed as IC50 (inhibitory concentration 50), which is the concentration of each of the tested compounds yielding an inhibition equal to 50% of the aggregation obtained with a submaximal concentration (1-4 μM) of ADP (a submaximal concentration of ADP is the minimal amount of ADP which produces the maximal aggregation).

arterial rings = experiment: Test of vasorelaxation on arterial rings contracted with phenylephrine; type: cell-based; conditions: read-out: EC50 (vasodilatation equal to 50% of the maximum tone)
Description: The method used in the assays is substantially the same as described in following references: • * Furchgot, R. F., “Methods in nitric oxide research”; Feelisch & Stamler, eds., John Wiley & Sons, Chichester, England, pp 567-581. • * Trongvanbichnam K., et al., Jpn. J. Pharmacol. 71 (1996); 167-173. • * Sales, E., at al., Eur. J. Pharmacol. 258 (1994); 47-55.
The different compounds are tested at 5 different concentrations, at a concentration range from 0.0001 to 10 mM, using from 6 to 9 arterial rings for each compound. The obtained results are compared to those from the isosorbide 5-mononitrate, which is used as reference product.
The results are shown in table 1 below and are provided as EC50 (effective concentration 50), which is the concentration of each of the tested, compounds yielding a vasodilatation equal to 50% of the maximum tone at which the artery ring has been contracted with 1 μM of Phenylephrine.

[3] = system: Rats, left carotid artery thrombosis (FeCl3); experiment: In vivo antithrombotic effect, FeCl3 carotid artery thrombosis; set-up: species or system rat; conditions: single oral dose of 100 mg/Kg; no occlusion during 60 min after FeCl3 patch
Description: The method used is substantially the same as described by Kurz (Kurz K. D., et al., Thromb. Res. 1990, 60:269-280) and modified by Feuerstein (Feuerstein G. Z., et al., Artherioscler. Thromb. Vase. Biol. 1999, 19: 2554-25562).
Rats received a single oral dose of 100 mg/Kg of the compounds.
Forty-five minutes after dosing rats were anaesthetized with sodium pentobarbital (40 mg/kg, i.p.) and they were placed later dorsally on a heated (37° C.) surgical board.
The left carotid artery was isolated and a Parafilm 4 sheet (7×20 mm, American National Can) was placed under it. An electromagnetic sounding of flow (Transonic Systems Inc.) was placed on the artery to measure blood flow.
as §1
The vessel was considered totally occluded by the thrombus formed when no blood flow was detected (0.0 ml/min). In this model, thrombus formation usually takes place within 15 to 20 minutes in non-treated animals.

[4] = system: heart (AVP-induced coronary vasoconstriction); experiment: In vivo protection against ischemia-reperfusion damage in the heart (arginine-vasopressin induced S-wave depression); conditions: p.o.; for S-wave decrement: 1 h before AVP 0.3 U/kg, vehicle 46.2 ± 4.9
Description: Experiments were performed according to the model previously described by Hirata Y at al (Journal of Cardiovascular Pharmacology, 1998, 31: 322-326)
After a food fasting period of 6 hours, animals were divided into groups of at least 8 animals each. Doses of products were given by oral sounding 1 h before the ischemia induction. Animals were anaesthetized with pentobarbital (40 mg/kg, i.p.) and the standard limb lead II electrocardiogram was recorded to detect the S-wave depression. 0.3 U/kg arginine-vasopressin (AVP) (Sigma Chemicals, St Louis, Mo., USA) was injected into the carotid artery to induce vasoconstriction of small coronary arteries and increase in coronary resistance. In all the groups received AVP 60 min after, the test drug. In all groups, after AVP injection of 10 minutes ECG recording was performed.
The results are shown in table 16 and are expressed as S-wave decrements (μvolts).

LDL = experiment: Inhibition of LDL oxidation induced by haemin and H2O2 (conjugated dienes, 234 nm); type: biochemical, human; conditions: compounds at 10 μM; 2.5 μM haemin and 5 μM H2O2; mean ± s.e.m.
From the text: The method used in the assays to determine the effect of the compounds on LDL oxidation is substantially the same as described in the following references: • Sprenger T., et al., Chem. Phys. Lipids 1998; 91:39-52 • Lynch S. M., et al., Biochim. Biophys. Acta 2000; 1485:11-22 • Pedreño J., et al., Thromb. Res. 2000; 99: 51-60.
The method used in the assays to isolate LDL particles from fresh human plasma is substantially the same as described in Pedreño J., et al., Atherosclerosis 2001; 155: 99-112.
Oxidative modification of low-density lipoprotein (LDL) is currently believed to be a central event it the development of atherosclerotic cardiovascular disease. The exposition of LDL to globin-free haemin (the complex of ferric ion (Fe^3+) with protoporphyrin IX), derived from the haemoglobin in circulating erythrocytes, serves as a physiological source of pro-oxidant Fe^3+ capable to promoting LDL oxidation. The compounds were added in vitro to determine their inhibitory activity on LDL oxidation induced by haemin and H2O2. LDL at a final protein concentration of 0.2 mg/ml was incubated in the presence of 2.5 μM haemin and 5 μM H202. Oxidative modification of LDL particles was assessed by measurement of conjugated dienes. Experimental samples were incubated at 37° C. and the increase in absorbance at 234 nm was automatically recorded every 5 min for at least 5 h. The effect of compounds on the LDL oxidation induced by haemin was tested at 7 different concentrations using LDL preparations from 7 different healthy donors.

[5] = system: heparinized plasma (plasma lipoproteins); experiment: Inhibition of plasma oxidation induced by Cu2+ (absorbance 234 nm); type: biochemical; conditions: compounds at 10 μM; 50 μM CuSO4; mean ± s.e.m.
Description: The method used in the assays to determine the effect of compounds on the capacity of oxidation of the plasma is substantially the same as described in Spranger T. et al., Chem Phys Lipids 1998; 91: 39-52.
Lipoprotein oxidation induced in vitro in plasma is expected to represent a relevant model of the lipoprotein oxidation in the arterial wall. Oxidation of plasma lipoproteins was assessed as the capacity of oxidation of heparinized plasma and was measured by spectrophotometry as in increase in absorbance at 234 nm. The compounds were added in vitro to determine their inhibitory activity over the capacity of oxidation of plasma induced by Cu^2+ (CuSO4). Heparinized plasma was diluted with phosphate-buffered saline solution (PBS) containing 0.16 M NaCl, and the oxidation was started by 50 μM CuSO4. Experimental samples were incubated at 37° C. and the increase in absorbance at 234 nm was automatically recorded every 15 min for at least 12 h. The effect of compounds over the capacity of oxidation of plasma induced by Cu^2+ was tested at 7 different concentrations using heparinizaded plasma from 7 different healthy donors.

HUVEC cells = experiment: In vitro protection against cytotoxicity induced by oxygen radicals (peroxynitrite), XTT method; type: cell-based, human; conditions: HUVEC pre-treated with 50 μM compound for one hour, then 800 μM peroxynitrite overnight
From the text: The method used is substantially the same as described by Caveda L., et al. (J. Clin. Invest. […]; 98: 886-893).
For the determination of the capacity to inhibit the cytotoxicity induced by oxygen radicals Human Umbilical Vein Endothelial Cells (HUVEC) were used. HUVEC were isolated and cultured in M199 and 20% FCS (Fetal Calf Serum).
Test XTT assay is based on […] by the metabolically active cells of the salt of tetrazolio XTT to form an orange product, the formazan dye formed is soluble and is directly quantified using an spectrophotometer.
HUVEC cells were cultivated until a sub-confluence status in a 96 well tissue culture plate and pre-treated with 50 μM of the compound for one hour. After that, cells were treated with 800 μM of peroxynitrite for an overnight.
After overnight incubation cells were incubated with the yellow XTT solution (final concentration 0.3 mg/ml) for 4 hours. After this incubation period, orange formazan solution was formed, which was spectrophotometrically quantified using an ELISA plate reader at 450 nm
The results are shown in table 15 and are expressed as percentage of death cells.

[6] = Clopidogrel 1.5 mg/Kg/day, oral for 3 days
[7] = artery ring contracted with 1 μM Phenylephrine, mean ± s.d.
[8] = Acetyl salicylic acid 100 mg/Kg/day, oral, for 3 days

With `COC(=O)[C@H](c1ccccc1Cl)N1CCc2sccc2C1` [Clopidogrel] the “% of animals protected” value [1, 6] was “(50%)” and the “Rate of animals with thrombotic occlusion” value [1, 6] was 0.50.
Compound `C[S@+]([O-])[C@H]1CO[C@H]2[C@@H]1OC[C@H]2O[N+](=O)[O-]` [(4bis), 2-[(S)-methylsulfinyl]isosorbide 5-mononitrate] has an IC50 [2] of 850 ± 150 µM.
Work on `O=[N+]([O-])O[C@@H]1CO[C@H]2[C@@H]1OC[C@@H]2SC1CCCCO1` (stereo partly shown) [(7), 2-(tetrahydropyran-2-yl-thio)isosorbide 5-mononitrate] yielded an EC50 (arterial rings; [7]) of 50 ± 9 µM and an IC50 [2] of 580 ± 21 µM.
For `C[S@@+]([O-])[C@H]1CO[C@H]2[C@@H]1OC[C@H]2O[N+](=O)[O-]` [(4), 2-[(R)-methylsulfinyl]isosorbide 5-mononitrate], the EC50 (arterial rings; [7]) was 338 ± 10 µM, the IC50 [2] was 1000 ± 10 µM and the “% of animals fully protected” value [3] was 80%. For the same compound, the “Protection of S-wave decrement” value ([4]; 20 mg/kg) was 21%, the S-wave decrement ([4]; 20 mg/kg) was 36.5 ± 11.6 μV and the “Protection of S-wave decrement” value ([4]; 100 mg/kg) was 87%. It also gave a S-wave decrement ([4]; 100 mg/kg) of 5.9 ± 3.9 μV.
In the case of `O=[N+]([O-])O[C@@H]1CO[C@H]2[C@@H]1OC[C@@H]2O` [Isosorbide 5-mononitrate, reference compound], the EC50 (arterial rings; [7]) is reported as 920 ± 200 µM, the IC50 [2] is reported as 2680 ± 330 µM and the “% of increment of lag phase with respect to control (LDL oxidation)” value (LDL) is reported as 0%. The “% of increment of lag phase with respect to control (plasma oxidation)” value [5] was 0%.
`O=NS[C@H]1CO[C@H]2[C@@H]1OC[C@H]2O[N+](=O)[O-]` [(6), S-nitroso-2-thioisosorbide 5-mononitrate] gave an EC50 (arterial rings; [7]) of 1.2 ± 0.1 µM and an IC50 [2] of 1.9 ± 0.5 µM.
For `CS[C@H]1CO[C@H]2[C@@H]1OC[C@H]2O[N+](=O)[O-]` [(3), 2-methylthioisosorbide 5-mononitrate], the EC50 (arterial rings; [7]) was 43 ± 6 µM, the IC50 [2] was 410 ± 90 µM and the “% of animals fully protected” value [3] was 100%. The “% of death cells” value (HUVEC cells) was 80%.
With 2-thioisosorbide [(9)] the EC50 (arterial rings; [7]) was 24 ± 5 µM, the “Protection of S-wave decrement” value ([4]; 20 mg/kg) was 64% and the S-wave decrement ([4]; 20 mg/kg) was 16.5 ± 9.8 μV. The “Protection of S-wave decrement” value ([4]; 100 mg/kg) was 79% and the S-wave decrement ([4]; 100 mg/kg) was 9.7 ± 4.6 μV.
In the case of `CC(=O)Oc1ccccc1C(=O)O` [Acetyl salicylic acid], the “% of animals protected” value [1, 8] is reported as “(50%)” and the “Rate of animals with thrombotic occlusion” value [1, 8] is reported as 0.50.
For `O=[N+]([O-])O[C@@H]1CO[C@H]2[C@@H]1OC[C@@H]2SS[C@H]1CO[C@H]2[C@@H]1OC[C@H]2O[N+](=O)[O-]` [(2), 5,5′-dinitrato-2,2′-dithiodiisosorbide], the EC50 (arterial rings) was 5.3 ± 1 µM, the IC50 [2] was 10 ± 7 µM and the “% of increment of lag phase with respect to control (plasma oxidation)” value [5] was 7 ± 1%. The “% of death cells” value (HUVEC cells) was 80%.
In the case of `C[S@@+]([O-])[C@H]1CO[C@H]2[C@@H]1OC[C@H]2O[N+](=O)[O-]` (as salt: nitrate) [(4), 2-[(R)-methylsulfinyl]isosorbide 5-mononitrate], the melting point is reported as 115 °C.
